Holding throughout (type): in vivo
One experiment concerns B epitope SEQ ID NO: 43. Put plainly: Antibody titer in serum of immunized mice, indirect ELISA. As to conditions: FIG. 23; compared with the B epitope SEQ ID NO: 43 group and the B epitope SEQ ID NO: 43-PADRE group; mice immunized subcutaneously, 50 μg, Freund's adjuvant. Here is the method:
(§1) The protocol is as follows: • (1) The helper epitope was connected to individual antigens or antigen epitope with the linking peptide to construct multiple fusion antigens. The sequence of the linking peptide is GPSL (i.e. Gly-Pro-Ser-Leu) (SEQ ID NO:51). • (2) The fusion antigens from (1) were emulsified adequately with complete Freund's adjuvant of the same volume. Then to immunize mice via subcutaneous injection with the emulsion at the dose of 50 μg per mouse. The strains of experimental mice including C57, Fvb and Balb/C. After 7 days and 14 days of first immunization, the fusion antigens from (1) were emulsified adequately with incomplete Freund's adjuvant of the same volume and then to immunize mice via subcutaneous injection with the emulsion at the dose of 50 μg per mouse. • (3) There are two detection methods. […] Then the antibody titer is detected by indirect ELISA. […] PBMC (peripheral blood mononuclear cells) are isolated, and the CTL-mediated cytotoxicity is detected by LDH (lactate dehydrogenase) kit. […]
(§2) Method 1: The whole blood was collected every week after immunization and centrifugated at 6000 rpm for 20 min to obtain the serum for a total of 4 weeks. Antibody titers were detected by indirect ELISA as follows: • (1) Coating: the existing antigen or antigen epitope was diluted to 5 μg/mL with coating solution. […]

The subject of the next experiment is Aβ protein-42. The description is as above. As to conditions: FIG. 24; compared with the Aβ protein-42 group and the Aβ protein-PADRE group; mice immunized subcutaneously, 50 μg, Freund's adjuvant. Here is the method:
as §1, §2

The test system of another experiment is target cells. Put plainly: CTL-mediated cytotoxicity of PBMC from spleen of immunized mice, LDH kit. As to conditions: one week after last immunization. Here is the method: The protocol is as follows: • (1) The helper epitope was connected to individual antigens or antigen epitope with the linking peptide to construct multiple fusion antigens. The sequence of the linking peptide is GPSL (i.e. Gly-Pro-Ser-Leu) (SEQ ID NO:51). • (2) The fusion antigens from (1) were emulsified adequately with complete Freund's adjuvant of the same volume. Then to immunize mice via subcutaneous injection with the emulsion at the dose of 50 μg per mouse. The strains of experimental mice including C57, Fvb and Balb/C. After 7 days and 14 days of first immunization, the fusion antigens from (1) were emulsified adequately with incomplete Freund's adjuvant of the same volume and then to immunize mice via subcutaneous injection with the emulsion at the dose of 50 μg per mouse. • (3) There are two detection methods. One is to obtain the orbital blood of immunized mice on 7, 14, 21 and 28 day respectively, centrifuge the whole blood to get the serum. Then the antibody titer is detected by indirect ELISA. The other one is: one week after the last immunization, the mice are killed to get the spleen. PBMC (peripheral blood mononuclear cells) are isolated, and the CTL-mediated cytotoxicity is detected by LDH (lactate dehydrogenase) kit.
The first step was to construct the fusion antigen. […]
Method 2: one week after last immunization, mice were sacrificed, and spleen was taken; then PBMC (peripheral blood mononuclear cells) were isolated, and the CTL-mediated cytotoxicity was detected by LDH (lactate dehydrogenase) kit. • (1) Setting control: The control group was divided into effector cell spontaneous release group, experimental group, target cell spontaneous release group, target cell maximum release group, volume correction control group and background control group; • (2) The cells were centrifuged at 250 g for 4 minutes to make the effector cells fully contact with the target cells; • (3) The detection plate was incubated with 5% CO2 at 37° C. for 4 hours; 10 μL of Lysis buffer was added to every 100 μL medium (10×) in the target cell maximum release group. […]

Non-standard residues stand in square brackets, D forms with d. No end group written: not given here. Phe(4-NO2) = N[C@@H](Cc1ccc([N+](=O)[O-])cc1)C(=O)O

Turning to “FLPESFDGDPASNTAPLQPEGPSLAKFXAAWTLKAAA (FLPESFDGDPASNTAPLQPEGPSLAKF[Phe(4-NO2)]AAWTLKAAA) [B epitope+3 pPhe-PADRE]”, the antibody titers entry in the experiment with B epitope SEQ ID NO: 43 is reported as “significant increase”.
For the sequence “LVFFAEDVGSNKGAIIGLMVGGVVIAGPSLAKFVAXWTLKAAA (LVFFAEDVGSNKGAIIGLMVGGVVIAGPSLAKFVA[Phe(4-NO2)]WTLKAAA) [A-beta protein-6pPhe-PADRE]”, in the experiment with Aβ protein-42, the antibody titers entry is reported as “significant increase”.
For “TGYLYISAGPSLAXFVAAWTLKAAA (TGYLYISAGPSLA[Phe(4-NO2)]FVAAWTLKAAA) [epitope 2+2p-PADRE]”, the CTL-mediated cytotoxicity result in the experiment on target cells (FIG. 21, compared with the epitope SEQ ID NO:41 group and the epitope SEQ ID NO: 41-PADre group) is given as “significantly enhanced”.
On to “VLDNGDPLGPSLTGYLYISAGPSLAKXVAAWTLKAAA (VLDNGDPLGPSLTGYLYISAGPSLAK[Phe(4-NO2)]VAAWTLKAAA) [epitope 3+3p-PADRE]”, for which the CTL-mediated cytotoxicity result with target cells (FIG. 22, compared with the epitope SEQ ID NO:42 group and the epitope SEQ ID NO: 42-PADre group) is given as “significantly enhanced”.
With “VLDNGDPLGPSLXKFVAAWTLKAAA (VLDNGDPLGPSL[Phe(4-NO2)]KFVAAWTLKAAA) [epitope 1+1p-PADRE]”, the CTL-mediated cytotoxicity entry with target cells (FIG. 20, compared with the epitope SEQ ID NO:40 group and the epitope SEQ ID NO: 40-PADre group) is given as “significantly enhanced”.

The values are drawn from patent US12226476B2, “Helper epitope peptide and application thereof” (CHINA PHARMACEUTICAL UNIVERSITY, priority 2018, dated 2025).
